Measured values from patent US9782379B2, “Use of protectin DX for the stimulation of muscular IL-6 secretion” (Universite Laval, priority 2013, dated 2017).

Tests used:
[1] = test system: J774A.1 murine macrophages; test: macrophages treated with palmitate in vitro; type: cell-based; settings: 400 μM palmitate, 16 hours
Method: J774A.1 murine macrophages were maintained in DMEM (10% FBS) until 80% confluence. A 2 mM palmitate solution or methanol vehicle in alpha-MEM (12% BSA) was added to fresh DMEM (10% FBS) to give a final concentration of 400 μM palmitate. Concomitantly, PDX, RvE1, RvD1 (10 or 100 nM, Cayman chemical), or vehicle was added to the media. After 16 hours, the media was collected and cells were lysed as described for the studies in C2C12 myotubes.
(§1) Snap frozen gastrocnemius muscle and liver from mice were pulverized in liquid nitrogen then lysed overnight at 4° C. in the lysis buffer described for the C2C12 myotube experiments. Immunoblotting of myotube, macrophage, liver and muscle lysates was then performed as previously described^5. Briefly, 50 ug of protein was loaded onto a 7.5% acrylamide gel, subjected to SDS-PAGE then transferred onto nitrocellulose membranes. Membranes were then blocked and probed with the appropriate antibodies. Antibodies for p-Akt ser473, p-JNK thr183/tyr185, JNK, p-AMPK thr172, AMPK, p-STAT-3 ser727 and STAT-3 were obtained from Cell Signaling Technology (MA, USA). Antibodies for total Akt and iNOS were from Santa Cruz Biotechnology (CA, USA) and BD Transduction Laboratories™ (Canada) respectively.
(§2) Chemokines and cytokines were quantified in macrophage media, or mouse plasma using the MILLIPLEX™ MAP mouse cytokine/chemokine kit (Millipore Corporation, MA, USA). Nitrite accumulation in media was determined by Greiss assay as previously described^25. Plasma insulin levels were assessed by RIA (Linco, MI, USA). FFA were measured using an enzymatic colorimetric assay (Wako Chemicals, VA, USA). Skeletal muscle and liver IL-6 were quantified using the mouse IL-6 ELISA kit from R&D systems. Total plasma adiponectin was determined using the ELISA from ALPCO.

[2] = test system: C2C12 myotubes; test: IL-6 expression and release and AMPK phosphorylation in cultured C2C12 myotubes; type: cell-based
Method: C2C12 myoblasts were maintained in DMEM containing 10% FBS. Differentiation to myotubes was initiated by addition of DMEM containing 2% horse serum. The experiment was conducted 5 days after the addition of the differentiation media. Immediately prior to the commencement of experiments fresh media was added to the cells. Then vehicle or PDX (10, 100, and 1000 nM) was added to the appropriate wells. 30 and 120 minutes after the addition of PDX media was collected and frozen for IL-6 quantification and cells were washed in ice cold PBS. For extraction of mRNA cells were then lysed and scraped in 300 μl of RLT buffer (QIAGEN). For examination of AMPK activity cells were lysed and scraped in 200 μl of ice cold lysis buffer containing 50 mM HEPES pH7.5, 150 mM NaCl, 1 mM EGTA, 20 mM b-glycerophosphate, 1% NP40, 10 mM NaF, 2 mM Na3VO4, 1× protease inhibitor cocktail (Sigma).
as §1
(§3) RNA was extracted from C2C12 myotubes using an RNeasy® mini kit from QIAGEN. RNA from homogenized liver tissue was extracted using an RNeasy® fibrous tissue mini kit from QIAGEN. RNA was then reverse transcribed to cDNA using the high-capacity cDNA reverse transcription kit from applied biosystems. Real-time PCR for Ppargc1, Pck1, G6Pc, and GAPDH was then performed using Taqman assay on demand probes and primers from Applied Biosystems in a CFX96 real-time system from BIO-RAD. The relative expression of genes of interest was then determined by normalization to the housekeeping gene GAPDH using the comparative CT method for relative gene expression^30.
as §2

[3] = test system: lean C57BL/6J mice; test: paired 6 h lipid infusion and 4 mU/kg hyperinsulinemic-euglycemic clamp; type: in vivo
Method: 14-week old male C57BL/6J mice from Jackson Labs were used for the first paired lipid infusion hyperinsulinemic-euglycemic clamp study. These mice were placed on a standard laboratory chow diet with free access to food and water and kept in a 12 h light 12 h dark cycle at the Laval University hospital research centre animal facility. Mice were randomly assigned to saline, lipid or lipid+PDX groups. Five days prior to the experiment, mice were anesthetized and PE-10 catheters (Harvard Apparatus, QC, Canada) were inserted into the left common carotid artery and the right jugular vein for blood sampling and infusions respectively. Mice were fasted for 5 h leading up to the protocol. Immediately prior to the start of the lipid infusion, PDX (1 ug) or an equal volume of vehicle was administered via the jugular catheter to each group. Mice were then infused for 6 h with saline (5ml·kg^−1·h^−1) or lipid (20% intralipid emulsion (Baxter, ON, Canada) 5ml·kg^−1·h^−1 with 20 IU·ml^−1 heparin (LEO pharma, ON, Canada)). 2.5h into the infusion PDX (1 ug) or vehicle was again administered to the appropriate groups and the HIE clamp was initiated as previously described ^8,27. The clamp protocol consisted of a 90 min tracer equilibration period followed by a 120 min experimental period. A 5-μCi bolus of [3-^3H]glucose was given at the start of the tracer equilibration period followed by a 0.05-μCi/min infusion for 90 min. Blood samples were drawn for the assessment of glycemia, insulin and glucose turnover levels. Following the 90 min tracer equilibration period the clamp began with a primed-continuous infusion of human insulin (16 mU/kg bolus followed by 4 mU·kg^−1·min^−1, Humulin R; Eli Lilly, Indianapolis, Ind.). The [3-^3H]glucose infusion was increased to 0.2 μCi/min for the remainder of the experiment. Euglycemia (6.0-7.0 mM) was maintained during clamps by infusing 20% dextrose as necessary. Blood samples were taken continuously to determine glucose specific activity as well as insulin concentrations. Mice received saline-washed erythrocytes from donor mice throughout the experimental period (5-6 μl·min-1) to prevent a fall of ≧5% hematocrit. HGP and Rd were determined using Mari's non-steady-state equations for a two-compartmental model^28.
as §1, §3
Chemokines and cytokines were quantified in macrophage media, or mouse plasma using the MILLIPLEX™ MAP mouse cytokine/chemokine kit (Millipore Corporation, MA, USA). Nitrite accumulation in media was determined by Greiss assay as previously described^25. […]

[4] = highest dose, within 2 h, P<0.01

## CC/C=C\C[C@H](O)/C=C/C=C\C=C\[C@@H](O)C/C=C\C/C=C\CCC(=O)O [PDX, 10S,17S-dihydroxy-docosa-4Z,7Z,11E,13Z,15E,19Z-hexaeonic acid]
[1]
  iNOS and JNK activation: effectively suppresses
  lipid-induced IL-6 production: actually suppresses
[1]; PDX 10 or 100 nM
  lipid-induced secretion of CCL2/MCP-1, CCL5/RANTES, TNFα, IL-2, and IL-10: effectively suppresses
[2]; 100 nM of each lipid mediator vs vehicle
  IL-6 release from muscle cells: prompted IL-6 release
[2]; 30 minutes
  AMPK phosphorylation: promotes AMPK phosphorylation
  IL-6 release in the media: no IL-6 release can be detected
[2]; 2 h, P<0.05
  phosphorylation of AMPK: detected
[2]; [4]
  increase in IL-6 mRNA expression: more than 2 fold
  increase in IL-6 secretion (accumulation in media): more than 2 fold
[3]; P<0.05
  phosphorylation of AMPK on Thr172 in muscle: robust phosphorylation
  phosphorylation of hepatic STAT-3 on Ser727: enhancing
[3]; PDX 1 ug i.v. immediately prior to and 2.5 h into 6 h lipid infusion, vs saline and lipid-treated animals, P<0.01
  pre-clamp glycemia: significant lowering
[3]; PDX 1 ug i.v. x2, lipid-infused
  peripheral insulin action: partial restoration
[3]; PDX 1 ug i.v. x2, lipid-infused, P<0.001
  lipid-induced decline in whole-body insulin sensitivity (glucose infusion rate, GIR): completely prevented the lipid-induced decline
[3]; PDX 1 ug i.v. x2, lipid-infused, significantly greater than saline-infused mice, P<0.05
  hepatic insulin action: markedly increased
[3]; both lipid-infused groups (with and without PDX)
  adiponectin in plasma: similarly reduced levels
[3]; expression profile compared with plasma IL-6
  IL-6 protein expression in skeletal muscle: closely resembled that of plasma
[3]; liver and skeletal muscle, immunoblot
  phosphorylation of Akt on Ser473: confirmed the improved insulin action
[3]; liver, immunoblot
  JNK activation (phosphorylation on Thr183/Tyr185): prevents
[3]; mouse, in vivo
  liver IL-6 levels: no significant effect
  suppression of PGC-1α and PEPCK in liver (mRNA): enhancing
[3]; muscle and liver, immunoblot
  lipid-mediated induction of iNOS: represses
[3]; plasma, lipid-infused
  lipid-induced secretion of cytokines TNFα, IFNγ, IL-1β, IL-2 and IL-17: strongly suppresses
  lipid-induced secretion of proinflammatory chemokines CCL2/MCP-1 and CCL5/RANTES: strongly suppresses
[3]; plasma, P<0.001
  increase in IL-6 beyond that induced by lipid infusion alone: ~7 fold
[3]; tendency, P=0.08
  suppression of G6Pase in liver (mRNA): did not reach significance
